In patent US20170105910A1, “UV FILTER CAPSULE” (BASF SE, priority 2007, published 2017):

Test: Solubility of Ethylhexyl Triazone in solvents (visual assessment)
Format: physicochemical
Protocol: The solubility of Ethylhexyl Triazone in the systems indicated can be determined as follows:
The test substance is initially incorporated into the solvent (for example cosmetic emollient, as indicated in the table) at room temperature (about 20° C.-25° C.) with stirring in small beakers on a heatable magnetic stirrer (the stirring time here should not exceed about 30 min.). The assessment is carried out visually, i.e. it is checked whether a completely clear solution and without evident particles is present. The amounts, conditions and stirring times employed should be noted. If the substance is readily soluble, the concentration is increased by subsequent incorporation of further substance, for example by addition in 0.1 g steps with stirring. […] The assessment is carried out visually, if necessary with the aid of a microscope with lambda plate.

solubility at room temperature (in Spectrasolv DMDA, room temperature (20° C. to 25° C.)): about 55 % by weight
Ethylhexyl Triazone solubility at 25° C. (solvent C12-13 Alkyl Lactate): 22%
Ethylhexyl Triazone solubility at 25° C. (solvent Di-C12-13 Alkyl Tartrate): 35%
Ethylhexyl Triazone solubility at 25° C. (solvent Dioctyl Malate): 13%
Ethylhexyl Triazone solubility at 25° C. (solvent Spectrasolv DMDA): about 55%
Compound: CCCCC(CC)COC(=O)c1ccc(Nc2nc(Nc3ccc(C(=O)OCC(CC)CCCC)cc3)nc(Nc3ccc(C(=O)OCC(CC)CCCC)cc3)n2)cc1 (centres unmarked) [Ethylhexyl Triazone, 2,4,6-tris[anilino(p-carbo-2′-ethyl-1′-hexyloxy)]-1,3,5-triazine]
